Experimental data: the NIST ThermoML archive (doi:10.1016/j.tca.2005.08.007)
± gives the expanded uncertainty stated by the source.

Assay: xn = mol fraction of the nth substance listed
Conditions: 298.15 K, 101 kPa, Liquid; for viscosity: Capillary tube (Ostwald / Ubbelohde) method; for mass density: Vibrating tube method

C1CCCCC1 [cyclohexane] + CCCCCC
Conditions	mass density [kg/m3]	viscosity [mPa·s]
x1 = 0.0397	655.8 ± 0.39	0.2833 ± 0.0033
x1 = 0.2011	674.91 ± 0.37	0.3282 ± 0.0037
x1 = 0.2776	683.97 ± 0.36	0.3485 ± 0.0038
x1 = 0.3617	693.92 ± 0.35	0.3778 ± 0.004
x1 = 0.4409	703.31 ± 0.34	0.4077 ± 0.0042
x1 = 0.5889	720.83 ± 0.32	0.4815 ± 0.0048
x1 = 0.6848	732.18 ± 0.3	0.5355 ± 0.0052
x1 = 0.7608	741.18 ± 0.29	0.5994 ± 0.0057
x1 = 0.8074	746.7 ± 0.28	0.6444 ± 0.006
x1 = 0.9205	760.09 ± 0.27	0.7507 ± 0.0068

C1CCCCC1 [cyclohexane] + Cc1ccccc1
Conditions	mass density [kg/m3]	viscosity [mPa·s]
x2 = 0.0721	777.43 ± 0.26	0.8574 ± 0.0077
x2 = 0.1813	784.63 ± 0.28	0.7693 ± 0.007
x2 = 0.2798	791.6 ± 0.3	0.7024 ± 0.0065
x2 = 0.3613	799.02 ± 0.31	0.651 ± 0.0062
x2 = 0.4416	806 ± 0.33	0.6116 ± 0.0059
x2 = 0.6003	820.17 ± 0.36	0.5532 ± 0.0055
x2 = 0.6784	827.33 ± 0.38	0.5329 ± 0.0053
x2 = 0.7615	834.61 ± 0.39	0.5181 ± 0.0053
x2 = 0.8396	843.41 ± 0.41	0.5029 ± 0.0052
x2 = 0.9202	853.16 ± 0.43	0.4976 ± 0.0052

CCCCCC [hexane] + Cc1ccccc1
Conditions	mass density [kg/m3]	viscosity [mPa·s]
x2 = 0.0406	657.47 ± 0.4	0.2774 ± 0.0033
x2 = 0.2028	690.93 ± 0.4	0.3073 ± 0.0035
x2 = 0.2804	706.95 ± 0.41	0.3185 ± 0.0036
x2 = 0.3596	723.29 ± 0.42	0.3272 ± 0.0037
x2 = 0.4423	740.35 ± 0.42	0.3421 ± 0.0038
x2 = 0.5997	772.81 ± 0.43	0.3812 ± 0.0042
x2 = 0.6757	788.5 ± 0.43	0.4028 ± 0.0044
x2 = 0.7597	805.83 ± 0.43	0.43 ± 0.0046
x2 = 0.8412	822.63 ± 0.44	0.4644 ± 0.0049
x2 = 0.9199	838.87 ± 0.44	0.499 ± 0.0052
